According to US20100160369A1, “S1P1 Agonists and Methods of Making And Using” (EXELIXIS, INC., priority 2008, published 2010):

What was measured:
[1] = target: T1, S1P1 (Homo sapiens, UniProt P21453); assay: CNG cAMP Assay (Assay 1); assay type: cell-based; parameters: host or cells: HEK293 cells expressing the CNG channel; settings: read-out: Assay 1 EC50
Summary of the method: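 cAMP-gated CNG membrane-potential read-out (350/590 nm, T90/T0 ratio) in S1P1/CNG HEK293 cells after 90 min with compound plus NECA 500 nM, S1P 10 nM (EC95), Ro 20-1724 25 μM. Ten 3-fold points from 10 μM, 1.8% DMSO; percent activity vs NECA-only control gives EC50.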
Target sequence in this assay (P21453 whole entry): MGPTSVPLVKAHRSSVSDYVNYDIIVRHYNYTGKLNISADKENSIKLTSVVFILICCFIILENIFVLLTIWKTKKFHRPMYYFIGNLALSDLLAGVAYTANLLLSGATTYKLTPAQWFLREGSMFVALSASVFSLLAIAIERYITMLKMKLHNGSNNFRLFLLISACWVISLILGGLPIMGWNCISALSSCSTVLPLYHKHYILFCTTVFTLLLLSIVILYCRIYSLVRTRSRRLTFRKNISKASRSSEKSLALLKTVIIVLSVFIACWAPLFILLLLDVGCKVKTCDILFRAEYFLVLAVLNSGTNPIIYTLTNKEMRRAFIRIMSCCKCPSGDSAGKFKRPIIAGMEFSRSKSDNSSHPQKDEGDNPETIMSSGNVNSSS

[2] = target: T1, S1P1; assay: DELFIA GTP-Eu Binding Assay (Assay 3b); assay type: biochemical; parameters: purchased Lonza; host or cells: CHO cell membranes
Method: The DELFIA GTP-Eu binding assay (PerkinElmer) is a time-resolved fluorometric assay based on GDP-GTP exchange. CHO cell membranes (Lonza) expressing human S1P1 were incubated in 96-well filter plates (Pall, East Hills, N.Y.) in a final volume of 100 μL/well buffer containing 40 μg/mL membrane, 50 mM HEPES, 2 μM GDP, 10 mM MgCl2, 100 mM NaCl, 500 μg/mL Saponin and test compound. Test compounds were tested at maximum concentrations of 10 μM. Compounds were diluted (10 concentration points, 3-fold each) and added to the assay plate at a 1% final DMSO concentration. For each compound, there were duplicate assay plates and each assay plate had duplicate wells per concentration point. The plates were incubated for 30 min at room temperature on a plate shaker at low speed. GTP-Eu was added to each well (10 μL, 10 nM final concentration) and the plate was incubated for an additional 30 min with slow shaking The wells were washed with ice cold GTP washing buffer (3×150 μL) using a vacuum manifold and the assay plates read in an EnVision plate reader (PerkinElmer) at an excitation wavelength of 340 nm and an emission wavelength of 615 nm. To determine agonist activity, percent activity was calculated as [(test compound−background)/(positive control−background)*100], where background is the fluorescence in absence of compound and the positive control is the fluorescence from membranes incubated with 1 μM S1P (Avanti). The percent activities were plotted against compound concentration to determine IC50 or EC50 using XLFit (IDBS).
(§1) Assay 1 is the CNG cAMP Assay as described in Biological Example 1. Assay 2a and 2b are the Tango™ β-arrestin Recruitment Assay in HEK293 and U2OS cells, respectively, as described in Biological Example 2. Assay 3a is the hS1P1R GTPγS Binding Assay as described in Biological Example 3. Assay 3b is the GTP-Eu Binding Assay as described in Biological Example 3. EC50's were measured unless otherwise noted. […] In the table, “nt” means the Compound was not tested and “no” means the compound was tested but had no measurable activity under the assay conditions employed.
Target sequence in this assay (P21453 whole entry): as above

[3] = target: T1, S1P1; assay: Tango β-arrestin Recruitment Assay in HEK293 cells (Assay 2a); assay type: cell-based; parameters: linker with TEV protease (N1a) cleavage site (C); host or cells: HEK293, transiently transfected; settings: Tango β-arrestin Recruitment Assay, read-out: Assay 2a EC50
Summary of the method: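 Agonist-driven β-arrestin2–TEV recruitment releases tTA to drive luciferase in transiently transfected HEK293 cells. Ten 3-fold dilutions from 10 μM top (1% DMSO), 16–18 h at 37 °C; EC50 fitted to percent activity versus DMSO background and 5 μM S1P efficacy control.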
Target sequence in this assay (P21453 whole entry): as above
Target sequence in this assay (P32121 whole entry partner): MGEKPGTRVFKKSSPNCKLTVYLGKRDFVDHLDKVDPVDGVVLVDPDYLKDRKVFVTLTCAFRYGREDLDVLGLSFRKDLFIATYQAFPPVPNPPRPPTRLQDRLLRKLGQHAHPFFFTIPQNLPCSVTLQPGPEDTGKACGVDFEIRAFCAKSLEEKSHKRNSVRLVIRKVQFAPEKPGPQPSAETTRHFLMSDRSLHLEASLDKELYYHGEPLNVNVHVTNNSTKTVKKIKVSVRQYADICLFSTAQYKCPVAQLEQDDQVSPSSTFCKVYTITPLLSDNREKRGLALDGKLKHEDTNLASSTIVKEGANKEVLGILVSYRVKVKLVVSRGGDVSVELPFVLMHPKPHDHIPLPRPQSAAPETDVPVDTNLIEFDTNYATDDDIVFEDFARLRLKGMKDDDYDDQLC

[4] = target: T1, S1P1; assay: Tango β-arrestin Recruitment Assay in U2OS cells (Assay 2b); assay type: cell-based; parameters: linker with TEV protease (N1a) cleavage site (C); settings: Tango β-arrestin Recruitment Assay, read-out: Assay 2b EC50
Summary of the method: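 Agonist EC50 from percent activity relative to 1 μM S1P efficacy control, using background-subtracted 460/530 nm emission ratios. Compounds (max 1 μM, ten 3-fold dilutions) incubated overnight at 37 °C with serum-starved S1P1 U2OS reporter cells, followed by 2 h β-lactamase reagent at room temperature.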
Target sequence in this assay (P21453 whole entry): as the sequence (P21453 whole entry) above
Target sequence in this assay (P32121 whole entry partner): as the sequence (P32121 whole entry partner) above

[5] = target: T2, hS1P1R (hEdg1) (Homo sapiens, UniProt P21453); assay: hS1P1R GTPγS Binding Assay (Assay 3a); assay type: biochemical
T2 construct: purchased Lonza
T2 sequence (P21453 whole entry): as the sequence (P21453 whole entry) above
Method: The hS1P1R GTPγS binding assay was carried out at room temperature in 96 well non-binding surface assay plates. The reaction in each well contained 4 μg hS1P1R (hEdg1) membrane protein (Lonza), 30 μM GDP, 0.1 nM [^35S]GTPγS, 0.25% fatty acid free BSA, and serially diluted hS1P1R agonist compound in 200 μL assay buffer (25 mM Tris-HCl PH 7.9, 100 mM NaCl, 3 mM MgCl2, and 0.2 mM EGTA). After one hour of incubation, 0.9 mg of WGA (Wheat Germ Agglutinin) SPA beads in 50 μL of assay buffer was added to each well. The SPA beads were spun down after an additional one hour incubation. The radioactivity of the bound GTPγS was counted by reading the assay plate using a MicroBeta.
as §1

[6] = footnote 1: Relative EC50 was measured, read-out: Assay 3b Relative EC50
[7] = relative EC50 was measured (footnote 1), read-out: Assay 3b Relative EC50

Row | EC50 [1] [nM] | EC50 ([2]; read-out: Assay 3b EC50) [nM] | EC50 [3] [nM] | EC50 [2, 6] [nM] | EC50 [2, 7] [nM] | EC50 [4] [nM] | EC50 [5] [nM] | Structure (SMILES)
1 | ≤ 100 | 500 to 1000 | 100 to 500 | – | – | – | – | O=C(O)CCNCc1ccc(-c2noc(-c3cn4cc(C(F)(F)F)cc(Cl)c4n3)n2)c(Cl)c1 [Example 130, N-[(3-chloro-4-{5-[8-chloro-6-(trifluoromethyl)imidazo[1,2-a]pyridin-2-yl]-1,2,4-oxadiazol-3-yl}phenyl)methyl]-beta-alanine]
2 | ≤ 100 | – | 100 to 500 | 500 to 1000 | – | – | – | Cc1cc(C(C)CC(=O)O)ccc1-c1noc(-c2cn3cc(C(F)(F)F)cc(Br)c3n2)n1 (centres unmarked) [Example 153, 3-(4-{5-[8-bromo-6-(trifluoromethyl)imidazo[1,2-a]pyridin-2-yl]-1,2,4-oxadiazol-3-yl}-3-methylphenyl)butanoic acid]
3 | ≤ 100 | 500 to 1000 | ≤ 100 | – | – | – | – | NCC(O)COc1cc(Cl)c(-c2noc(-c3cn4cc(C(F)(F)F)cc(Cl)c4n3)n2)cc1Cl (centres unmarked) [Example 226, 1-amino-3-[(2,5-dichloro-4-{5-[8-chloro-6-(trifluoromethyl)imidazo[1,2-a]pyridin-2-yl]-1,2,4-oxadiazol-3-yl}phenyl)oxy]propan-2-ol]
4 | 100 to 500 | – | 100 to 500 | – | 1000 to 5000 | – | – | O=C(O)C1CN(Cc2ccc(-c3noc(-c4cn5cc(C(F)(F)F)cc(Cl)c5n4)n3)c(Cl)c2)C1 [Example 124, 1-[(3-chloro-4-{5-[8-chloro-6-(trifluoromethyl)imidazo[1,2-a]pyridin-2-yl]-1,2,4-oxadiazol-3-yl}phenyl)methyl]azetidine-3-carboxylic acid]
5 | ≤ 100 | – | 100 to 500 | – | 1000 to 5000 | – | – | O=C(O)CCc1cc(F)c(-c2noc(-c3cn4cc(C(F)(F)F)cc(Cl)c4n3)n2)c(F)c1 [Entry 10]
6 | ≤ 100 | 1000 to 5000 | 100 to 500 | – | – | – | – | O=C(O)CCNCc1ccc(-c2noc(-c3cn4cc(C(F)(F)F)cc(Br)c4n3)n2)c(Cl)c1 [Example 131, N-[(4-{5-[8-bromo-6-(trifluoromethyl)imidazo[1,2-a]pyridin-2-yl]-1,2,4-oxadiazol-3-yl}-3-chlorophenyl)methyl]-beta-alanine]
7 | ≤ 100 | 100 to 500 | ≤ 100 | – | – | – | – | COc1cc(Cl)c2nc(-c3nc(-c4cc(F)c(CCC(=O)O)cc4Cl)no3)cn2c1 [Entry 61]
8 | ≤ 100 | 1000 to 5000 | 100 to 500 | – | – | – | – | O=C(O)C1CN(Cc2ccc(-c3noc(-c4cn5cc(C(F)(F)F)cc(Br)c5n4)n3)c(Cl)c2)C1 [Example 132, 1-[(4-{5-[8-bromo-6-(trifluoromethyl)imidazo[1,2-a]pyridin-2-yl]-1,2,4-oxadiazol-3-yl}-3-chlorophenyl)methyl]azetidine-3-carboxylic acid]
9 | ≤ 100 | 100 to 500 | ≤ 100 | – | – | – | – | O=C(O)/C=C/c1cc(Cl)c(-c2noc(-c3cn4cc(C(F)(F)F)cc(Cl)c4n3)n2)cc1F [Entry 63]
10 | ≤ 100 | 100 to 500 | ≤ 100 | – | – | – | – | O=C(O)C1CC1c1cc(Cl)c(-c2noc(-c3cn4cc(C(F)(F)F)cc(Cl)c4n3)n2)cc1F (centres unmarked) [Example 85, 2-(5-chloro-4-{5-[8-chloro-6-(trifluoromethyl)imidazo[1,2-a]pyridin-2-yl]-1,2,4-oxadiazol-3-yl}-2-fluorophenyl)cyclopropanecarboxylic acid]
11 | ≤ 100 | 100 to 500 | ≤ 100 | – | – | – | – | Cc1cc(CCC(=O)O)ccc1-c1noc(-c2cn3cc(C(F)(F)F)cc(Cl)c3n2)n1 [Entry 2]
12 | ≤ 100 | 500 to 1000 | 100 to 500 | – | – | – | – | CS(=O)(=O)Nc1ccc(-c2noc(-c3cn4cc(C(F)(F)F)cc(Cl)c4n3)n2)c(Cl)c1 [Example 94, N-(3-chloro-4-{5-[8-chloro-6-(trifluoromethyl)imidazo[1,2-a]pyridin-2-yl]-1,2,4-oxadiazol-3-yl}phenyl)methanesulfonamide]
13 | ≤ 100 | – | ≤ 100 | – | – | ≤ 100 | ≤ 100 | OC[C@H](O)COc1cc(Cl)c(-c2noc(-c3cn4cc(C(F)(F)F)cc(Cl)c4n3)n2)cc1Cl [Entry 39]
14 | ≤ 100 | – | 100 to 500 | – | 1000 to 5000 | – | – | O=C(O)CCc1ccc(-c2nnc(-c3cn4cc(C(F)(F)F)cc(Cl)c4n3)o2)c(Cl)c1 [Example 99]
15 | ≤ 100 | 100 to 500 | ≤ 100 | – | – | – | – | O=C(O)CCc1cc(Cl)c(-c2nc(-c3cn4cc(C(F)(F)F)cc(Br)c4n3)no2)cc1F [Example 238, 3-(4-{3-[8-bromo-6-(trifluoromethyl)imidazo[1,2-a]pyridin-2-yl]-1,2,4-oxadiazol-5-yl}-5-chloro-2-fluorophenyl)propanoic acid]
16 | ≤ 100 | – | 100 to 500 | – | 1000 to 5000 | – | – | O=C(O)C1CC1c1ccc(-c2noc(-c3cn4cc(C(F)(F)F)cc(Cl)c4n3)n2)c(Cl)c1 (centres unmarked) [Example 42, 2-(3-chloro-4-{5-[8-chloro-6-(trifluoromethyl)imidazo[1,2-a]pyridin-2-yl]-1,2,4-oxadiazol-3-yl}phenyl)cyclopropanecarboxylic acid]
17 | ≤ 100 | 1000 to 5000 | 100 to 500 | – | – | – | – | CC(CC(=O)O)c1ccc(-c2noc(-c3cn4cc(C(F)(F)F)cc(Cl)c4n3)n2)c(Cl)c1 (centres unmarked) [Example 172, 3-(3-chloro-4-{5-[8-chloro-6-(trifluoromethyl)imidazo[1,2-a]pyridin-2-yl]-1,2,4-oxadiazol-3-yl}phenyl)butanoic acid]
18 | ≤ 100 | 500 to 1000 | ≤ 100 | – | – | – | – | O=C(O)CCc1ccc(-c2noc(-c3cn4cc(C(F)(F)F)cc(Cl)c4n3)n2)c(Cl)c1 [Entry 1]
19 | ≤ 100 | – | ≤ 100 | ≤ 100 | – | – | – | CC(C)Cc1cc(Cl)c2nc(-c3nc(-c4cc(F)c(CCC(=O)O)cc4Cl)no3)cn2c1 [Example 149, 3-(5-chloro-4-{5-[8-chloro-6-(2-methylpropyl)imidazo[1,2-a]pyridin-2-yl]-1,2,4-oxadiazol-3-yl}-2-fluorophenyl)propanoic acid]
20 | ≤ 100 | – | ≤ 100 | – | 500 to 1000 | – | – | O=C(O)CCc1ccc(-c2noc(-c3cn4cc(C(F)(F)F)cc(Cl)c4n3)n2)cc1F [Entry 6]
21 | ≤ 100 | – | 100 to 500 | – | 1000 to 5000 | – | – | Cc1cc(C2CC2C(=O)O)ccc1-c1noc(-c2cn3cc(C(F)(F)F)cc(Cl)c3n2)n1 (centres unmarked) [Entry 69]
22 | ≤ 100 | – | ≤ 100 | – | – | ≤ 100 | 100 to 500 | CC(O)COc1cc(Cl)c(-c2noc(-c3cn4cc(C(F)(F)F)cc(Cl)c4n3)n2)cc1Cl (centres unmarked) [Example 292, 1-[(2,5-dichloro-4-{5-[8-chloro-6-(trifluoromethyl)imidazo[1,2-a]pyridin-2-yl]-1,2,4-oxadiazol-3-yl}phenyl)oxy]propan-2-ol]
